Assay results as given in patent US20260042769A1, “TRIARYL AGONISTS OF ALPHA-2 ADRENERGIC RECEPTORS” (ALCEPTOR THERAPEUTICS, INC., priority 2023, published 2026).

What follows are molecules tested against T1, human ADRA2B receptor (Homo sapiens, UniProt P18089) (assay: GTPγS agonist assay, ADRA2B receptor). Conditions: read-out: GTPase - Human Alpha2B EC50.
T1 construct: expressed in transfected cells
T1 sequence (P18089 1-450): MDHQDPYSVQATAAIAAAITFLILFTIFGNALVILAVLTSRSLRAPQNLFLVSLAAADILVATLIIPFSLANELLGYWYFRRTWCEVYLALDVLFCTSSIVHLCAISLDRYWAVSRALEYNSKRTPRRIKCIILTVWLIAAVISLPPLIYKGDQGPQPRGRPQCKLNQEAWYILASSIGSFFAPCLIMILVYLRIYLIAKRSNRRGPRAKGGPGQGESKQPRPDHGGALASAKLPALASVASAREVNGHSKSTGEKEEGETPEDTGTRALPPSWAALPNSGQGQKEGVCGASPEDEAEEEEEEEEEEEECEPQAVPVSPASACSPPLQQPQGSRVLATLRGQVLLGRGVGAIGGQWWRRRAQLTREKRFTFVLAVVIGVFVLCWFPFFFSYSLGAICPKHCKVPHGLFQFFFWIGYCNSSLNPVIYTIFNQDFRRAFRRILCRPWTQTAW
Format: biochemical
Experimental: GTP ? S Agonist Assays (ADRA2A, ADRA2B, and ADRA2C Receptors)
Membranes were prepared for GTP ? S binding assays from CHO-K1 cells stably expressing human ADRA2A, ADRA2B, or ADRA2C receptor. Briefly, cells were grown in 5-layer cell culture flasks. Cells were washed with 50 mL of PBS and then dissociated with 0.05% trypsin. Dissociated cells were then collected by centrifugation at 650×g for 8 min at 4° C. Pellets were washed again in PBS by centrifugation and resuspended in 30 mL of 20 mM HEPES, 10 mM EDTA, pH 7.4. After sitting on ice for 30 min, membranes were collected by centrifugation at 50000×g for 15 min at 4° C., resuspended in 30 mL of 20 mM HEPES, 0.1 mM EDTA, pH 7.4 and collected again by centrifugation. Pellets were then washed twice by centrifugation in 30 mL of 20 mM HEPES, pH 7.4, and stored at −80° C. until the day of the assay. On the day of the assay, pellets were thawed on ice and resuspended in 1 mL of 20 mM HEPES, pH 7.4, 10 mM MgCl2, 100 mM NaCl using dounce homogenization. Membrane protein concentration was determined by BCA protein assay (Promega, Madison, WI) according to Promega guidelines.
On the day of the assay, serial dilutions of test compounds were brought up in assay buffer (20 mM HEPES, 10 mM MgCl2, 200 mM NaCl) at 10× final assay concentration. 50 μL/well of membrane homogenates (containing 5 μg of membrane protein for ADRA2A, ADRA2B, or 7.5 μg for ADRA2C) were prepared in assay buffer supplemented with GDP at 2× final assay concentration (5 μM GDP) and dispensed into 96 well polypropylene, U-bottom Greiner plates. Then, 10 μL of compounds were added to assay plates and incubated for 10 min at room temperature. […] The binding reaction was incubated for 1 h at 37° C. Membranes in assay reactions were then transferred to GF/C filter plates (UniFilter, Perkin Elmer) and washed three times using a FilterMate Harvester (Perkin Elmer) with cold assay buffer containing no GDP. Filter plates were then dried at 40° C. overnight followed by the addition of 30 μL/well of Beta Plate Scintillation liquid. Plates were top and bottom sealed before being read on TopCount scintillation counter (Perkin Elmer, Waltham, MA).

Row | Structure (SMILES) | EC50
1 | Cc1cccc([C@@H](Cc2ccnn2C)c2c[nH]cn2)c1C [Compound 130, 5-[(R)-2-(4-imidazolyl)-2-(2,3-xylyl)ethyl]-1-methyl-pyrazole] | < 10 nM
2 | FC(F)(F)c1ccc(C(Cc2cccnn2)c2c[nH]cn2)cc1 (stereo not drawn) [Compound 223, 3-{2-(4-imidazolyl)-2-[p-(trifluoromethyl)phenyl]ethyl}pyridazine] | > 500 nM
3 | COc1ccc(C(Cc2cccnn2)c2c[nH]cn2)cc1 (stereo not drawn) [Compound 222, 3-[2-(4-imidazolyl)-2-(p-methoxyphenyl)ethyl] pyridazine] | > 500 nM
4 | Cc1cccc(C(Cc2ccc(N3CCCC3)nc2)c2c[nH]cn2)c1C (stereo not drawn) [Compound 309, 4-{2-[6-(1-pyrrolidinyl)-3-pyridyl]-1-(2,3-xylyl)ethyl}imidazole] | 10 to 50 nM
5 | Cc1cccc([C@H](Cc2ccnc(C(F)(F)F)n2)c2cnc[nH]2)c1C [Compound 72, 4-[(2S)-2-(2,3-dimethylphenyl)-2-(1H-imidazol-4-yl)ethyl]-2-(trifluoromethyl) pyrimidine] | < 10 nM
6 | COc1cccc(C[C@@H](c2cnc[nH]2)c2cccc(C)c2OC)n1 [Compound 10, 2-[(2R)-2-(1H-imidazol-4-yl)-2-(2-methoxy-3-methylphenyl)ethyl]-6-methoxypyridine] | > 500 nM
7 | Cc1cccc(C(Cc2ccc(Cl)cn2)c2cnc[nH]2)c1C (stereo not drawn) [Compound 90, 5-chloro-2-[2-(2,3-dimethylphenyl)-2-(1H-imidazol-4-yl)ethyl] pyridine] | < 10 nM
8 | FC(F)(F)Oc1ccccc1[C@@H](Cc1ccccn1)c1cnc[nH]1 [Compound 30, 2-[(2R)-2-(1H-imidazol-4-yl)-2-[2-(trifluoromethoxy)phenyl]ethyl] pyridine] | > 500 nM
9 | Cc1cccc(C(Cc2cnn(C(C)C)c2)c2c[nH]cn2)c1C (stereo not drawn) [Compound 277, 4-[2-(4-imidazolyl)-2-(2,3-xylyl)ethyl]-1-isopropylpyrazole] | 10 to 50 nM
10 | FC(F)(F)Oc1ccc(C(Cc2cccnn2)c2c[nH]cn2)cc1 (stereo not drawn) [Compound 220, 3-[2-(4-imidazolyl)-2-(p-trifluoromethoxyphenyl)ethyl]pyridazine] | > 500 nM
11 | c1ccc(C[C@@H](c2cnc[nH]2)c2cccc3c2CCO3)nc1 [Compound 42, 2-[(2R)-2-(2,3-dihydro-1-benzofuran-4-yl)-2-(1H-imidazol-4-yl)ethyl] pyridine] | 50 to 500 nM
12 | COc1nccc(CC(c2c[nH]cn2)c2cccc(Cl)c2OC)n1 (stereo not drawn) [Compound 198, 4-[2-(3-chloro-2-methoxyphenyl)-2-(4-imidazolyl)ethyl]-2-methoxypyrimidine] | 10 to 50 nM
13 | COc1nccc(CC(c2c[nH]cn2)c2cccc3cn[nH]c23)n1 (stereo not drawn) [Compound 172, 7-[1-(4-imidazolyl)-2-(2-methoxy-4-pyrimidinyl)ethyl]-1H-indazole] | > 500 nM
14 | FC(F)(F)c1ccccc1C(Cc1cccnn1)c1c[nH]cn1 (stereo not drawn) [Compound 166, 3-{2-(4-imidazolyl)-2-[o-(trifluoromethyl)phenyl]ethyl}pyridazine] | > 500 nM
15 | Cc1cccc([C@H](Cc2ccon2)c2c[nH]cn2)c1C [Compound 101, 3-[(S)-2-(4-imidazolyl)-2-(2,3-xylyl)ethyl] isoxazole] | 50 to 500 nM
16 | COc1cccc(C[C@@H](c2cccc(C)c2)c2cnc[nH]2)n1 [Compound 23, 2-[(2S)-2-(1H-imidazol-4-yl)-2-(3-methylphenyl)ethyl]-6-methoxypyridine] | < 10 nM
17 | COc1cccc(CC(c2c[nH]cn2)c2cccc3c2OC(F)(F)O3)n1 (stereo not drawn) [Compound 125, 2,2-difluoro-4-[1-(4-imidazolyl)-2-(6-methoxy-2-pyridyl)ethyl]-2H-1,3-benzodioxole] | 10 to 50 nM
18 | COc1cccc(CC(c2c[nH]cn2)c2cccc(C)c2Cl)n1 (stereo not drawn) [Compound 28, 2-[2-(2-chloro-3-methylphenyl)-2-(1H-imidazol-4-yl)ethyl]-6-methoxypyridine] | < 10 nM

Row | Structure (SMILES) | EC50
19 | Cc1nnc(CC(c2c[nH]cn2)c2cccc(C)c2C)o1 (stereo not drawn) [Compound 241, 2-[2-(4-imidazolyl)-2-(2,3-xylyl)ethyl]-5-methyl-1,3,4-oxadiazole] | 10 to 50 nM
20 | Cc1cccc([C@H](Cc2cccnc2)c2cnc[nH]2)c1Cl [Compound 60, 3-[(2S)-2-(2-chloro-3-methylphenyl)-2-(1H-imidazol-4-yl)ethyl] pyridine] | < 10 nM
21 | FC(F)(F)Oc1cccc([C@H](Cc2ccccn2)c2cnc[nH]2)c1 [Compound 35, 2-[(2S)-2-(1H-imidazol-4-yl)-2-[3-(trifluoromethoxy)phenyl]ethyl] pyridine] | > 500 nM
22 | Cc1cccc([C@@H](Cc2cccnc2)c2cnc[nH]2)c1Cl [Compound 61, 3-[(2R)-2-(2-chloro-3-methylphenyl)-2-(1H-imidazol-4-yl)ethyl]pyridine] | 50 to 500 nM
23 | COc1cccc(C[C@H](c2c[nH]cn2)c2cccc(Cl)c2C)n1 [Compound 14, 2-[(2S)-2-(3-chloro-2-methylphenyl)-2-(1H-imidazol-4-yl)ethyl]-6-methoxypyridine] | 50 to 500 nM
24 | Cc1cccc([C@@H](Cc2cccnn2)c2c[nH]cn2)c1Cl [Compound 214, 3-[(R)-2-(2-chloro-3-tolyl)-2-(4-imidazolyl)ethyl] pyridazine] | > 500 nM
25 | Cc1nccc(C[C@H](c2cnc[nH]2)c2cccc(C)c2C)n1 [Compound 70, 4-[(2S)-2-(2,3-dimethylphenyl)-2-(1H-imidazol-4-yl)ethyl]-2-methyl-pyrimidine] | < 10 nM
26 | COc1cccc(C[C@@H](c2cnc[nH]2)c2cccc3c2COC3)n1 [Compound 12, 2-[(2R)-2-(1,3-dihydro-2-benzofuran-4-yl)-2-(1H-imidazol-4-yl)ethyl]-6-methoxypyridine] | > 500 nM
27 | Cc1cnc(C[C@H](c2cnc[nH]2)c2cccc(C)c2C)nc1 [Compound 74, 2-[(2S)-2-(2,3-dimethylphenyl)-2-(1H-imidazol-4-yl)ethyl]-5-methyl-pyrimidine] | > 500 nM
28 | Cc1cc(C[C@@H](c2cnc[nH]2)c2cccc(C)c2C)n(C)n1 [Compound 69, 5-[(2R)-2-(2,3-dimethylphenyl)-2-(1H-imidazol-4-yl)ethyl]-1,3-dimethyl-1H-pyrazole] | < 10 nM
29 | Cc1ccnc(C[C@@H](c2cnc[nH]2)c2cccc(C)c2C)n1 [Compound 79, 2-[(2R)-2-(2,3-dimethylphenyl)-2-(1H-imidazol-4-yl)ethyl]-4-methylpyrimidine] | 50 to 500 nM
30 | Cc1cccc(C(Cc2cccc(=O)[nH]2)c2cnc[nH]2)c1C (stereo not drawn) [Compound 87, 6-[2-(2,3-dimethylphenyl)-2-(1H-imidazol-4-yl)ethyl] pyridin-2-ol] | > 500 nM
31 | Cc1cc(CC(c2c[nH]cn2)c2cccc(C)c2C)no1 (stereo not drawn) [Compound 114, 3-[2-(4-imidazolyl)-2-(2,3-xylyl)ethyl]-5-methyl-isoxazole] | < 10 nM
32 | c1ccc(C[C@H](c2cnc[nH]2)c2cccc3c2OCC3)nc1 [Compound 43, 2-[(2S)-2-(2,3-dihydro-1-benzofuran-7-yl)-2-(1H-imidazol-4-yl)ethyl] pyridine] | > 500 nM
33 | c1cnnc(C[C@H](c2c[nH]cn2)c2cccc3c2OCC3)c1 [Compound 363, 3-[(S)-2-(2,3-dihydro-1-benzofuran-7-yl)-2-(4-imidazolyl)ethyl]pyridazine] | > 500 nM
34 | Cc1cccc([C@H](Cc2ccccn2)c2cnc[nH]2)c1C [Compound 51, 2-[(2S)-2-(2,3-dimethylphenyl)-2-(1H-imidazol-4-yl)ethyl] pyridine] | 50 to 500 nM
35 | c1cncc(CC(c2cnc[nH]2)c2cccc3c2CCO3)c1 (stereo not drawn) [Compound 57, 3-[2-(2,3-dihydro-1-benzofuran-4-yl)-2-(1H-imidazol-4-yl)ethyl] pyridine] | > 500 nM
36 | Cc1cccc([C@H](Cc2ccc(=O)[nH]n2)c2cnc[nH]2)c1C [Compound 76, 6-[(2S)-2-(2,3-dimethylphenyl)-2-(1H-imidazol-4-yl)ethyl]-2,3-dihydropyridazin-3-one] | > 500 nM
